Reference: patent US20080051466A1, “Isoalpha acid based protein kinase modulation cancer treatment” (Metaproteomics, LLC, priority 2006, published 2008)

Columns and labels:
Assay in all cases: KinaseProfiler Assay
Type in all cases: biochemical
BTK = BTK (Homo sapiens, UniProt Q06187); conditions: read-out: BTK, % of Control
CDK1/cyclinB = CDK1/cyclinB (Homo sapiens, UniProt P06493); conditions: read-out: CDK1/cyclinB, % of Control
CK1δ = CK1δ (Homo sapiens, UniProt P48730); conditions: read-out: CK1δ, % of Control
EphA2 = EphA2 (Homo sapiens, UniProt P29317); conditions: read-out: EphA2, % of Control
Flt4 = Flt4 (Homo sapiens, UniProt P35916); conditions: read-out: Flt4, % of Control
Fyn = Fyn (Homo sapiens, UniProt P06241); conditions: read-out: Fyn, % of Control
GSK3β = GSK3β (Homo sapiens, UniProt P49841); conditions: read-out: GSK3β, % of Control
GSK3α = GSK3α (Homo sapiens, UniProt P49840); conditions: read-out: GSK3α, % of Control
GSK3α, sequence (P49840 whole entry): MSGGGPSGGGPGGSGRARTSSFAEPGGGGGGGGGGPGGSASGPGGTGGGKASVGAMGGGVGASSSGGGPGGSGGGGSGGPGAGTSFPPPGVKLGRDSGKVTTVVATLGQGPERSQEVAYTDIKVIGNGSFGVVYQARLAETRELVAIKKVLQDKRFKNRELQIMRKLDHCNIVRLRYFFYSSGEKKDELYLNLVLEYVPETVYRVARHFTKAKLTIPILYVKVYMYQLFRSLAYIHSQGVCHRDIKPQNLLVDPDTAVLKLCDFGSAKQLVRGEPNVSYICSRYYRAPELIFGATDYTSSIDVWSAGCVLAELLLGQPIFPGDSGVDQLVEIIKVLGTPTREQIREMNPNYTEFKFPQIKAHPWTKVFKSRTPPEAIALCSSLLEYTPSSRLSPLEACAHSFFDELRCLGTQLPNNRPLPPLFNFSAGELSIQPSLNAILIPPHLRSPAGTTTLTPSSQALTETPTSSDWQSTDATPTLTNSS

HIPK3 = HIPK3 (Homo sapiens, UniProt Q9H422); conditions: read-out: HIPK3, % of Control
PAK3 = PAK3 (Homo sapiens, UniProt O75914); conditions: read-out: PAK3, % of Control
PAK6 = PAK6 (Homo sapiens, UniProt Q9NQU5); conditions: read-out: PAK6, % of Control
PI3K gamma = PI3K gamma (Homo sapiens, UniProt P48736); conditions: 50 μg/ml
Pim-1 = Pim-1 (Homo sapiens, UniProt P11309); conditions: read-out: Pim-1, % of Control
Pim-2 = Pim-2 (Homo sapiens, UniProt Q9P1W9); conditions: read-out: Pim-2, % of Control
Pim-2, sequence (Q9P1W9 whole entry): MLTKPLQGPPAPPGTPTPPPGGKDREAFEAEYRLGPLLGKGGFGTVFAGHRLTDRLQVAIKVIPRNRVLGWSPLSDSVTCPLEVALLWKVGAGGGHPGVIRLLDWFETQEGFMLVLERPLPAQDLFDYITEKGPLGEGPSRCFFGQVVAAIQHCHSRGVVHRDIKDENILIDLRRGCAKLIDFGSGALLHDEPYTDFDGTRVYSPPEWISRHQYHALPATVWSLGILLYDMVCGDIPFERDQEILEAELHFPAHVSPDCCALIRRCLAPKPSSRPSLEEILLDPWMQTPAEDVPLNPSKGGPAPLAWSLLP

PKBα = PKBα (Homo sapiens, UniProt P31749); conditions: read-out: PKBα, % of Control
PKBα, sequence (P31749 whole entry): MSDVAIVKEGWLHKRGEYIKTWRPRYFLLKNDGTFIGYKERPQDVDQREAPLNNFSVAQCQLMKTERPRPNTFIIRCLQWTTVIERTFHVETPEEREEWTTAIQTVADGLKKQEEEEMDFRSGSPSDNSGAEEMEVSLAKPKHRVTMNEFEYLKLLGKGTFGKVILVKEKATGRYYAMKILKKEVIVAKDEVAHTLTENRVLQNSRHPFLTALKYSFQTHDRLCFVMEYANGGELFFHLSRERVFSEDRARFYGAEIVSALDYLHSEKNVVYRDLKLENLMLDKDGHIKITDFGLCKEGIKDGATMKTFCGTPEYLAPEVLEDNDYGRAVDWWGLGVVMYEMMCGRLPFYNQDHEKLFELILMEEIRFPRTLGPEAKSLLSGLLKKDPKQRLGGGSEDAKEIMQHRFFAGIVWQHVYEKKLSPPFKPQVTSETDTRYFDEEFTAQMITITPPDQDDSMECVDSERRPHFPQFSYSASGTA

PKCβII = PKCβII (Homo sapiens, UniProt P05771); conditions: read-out: PKCβII, % of Control
Ros = Ros (Homo sapiens, UniProt P08922); conditions: read-out: Ros, % of Control
Ros, sequence (P08922 28-2347): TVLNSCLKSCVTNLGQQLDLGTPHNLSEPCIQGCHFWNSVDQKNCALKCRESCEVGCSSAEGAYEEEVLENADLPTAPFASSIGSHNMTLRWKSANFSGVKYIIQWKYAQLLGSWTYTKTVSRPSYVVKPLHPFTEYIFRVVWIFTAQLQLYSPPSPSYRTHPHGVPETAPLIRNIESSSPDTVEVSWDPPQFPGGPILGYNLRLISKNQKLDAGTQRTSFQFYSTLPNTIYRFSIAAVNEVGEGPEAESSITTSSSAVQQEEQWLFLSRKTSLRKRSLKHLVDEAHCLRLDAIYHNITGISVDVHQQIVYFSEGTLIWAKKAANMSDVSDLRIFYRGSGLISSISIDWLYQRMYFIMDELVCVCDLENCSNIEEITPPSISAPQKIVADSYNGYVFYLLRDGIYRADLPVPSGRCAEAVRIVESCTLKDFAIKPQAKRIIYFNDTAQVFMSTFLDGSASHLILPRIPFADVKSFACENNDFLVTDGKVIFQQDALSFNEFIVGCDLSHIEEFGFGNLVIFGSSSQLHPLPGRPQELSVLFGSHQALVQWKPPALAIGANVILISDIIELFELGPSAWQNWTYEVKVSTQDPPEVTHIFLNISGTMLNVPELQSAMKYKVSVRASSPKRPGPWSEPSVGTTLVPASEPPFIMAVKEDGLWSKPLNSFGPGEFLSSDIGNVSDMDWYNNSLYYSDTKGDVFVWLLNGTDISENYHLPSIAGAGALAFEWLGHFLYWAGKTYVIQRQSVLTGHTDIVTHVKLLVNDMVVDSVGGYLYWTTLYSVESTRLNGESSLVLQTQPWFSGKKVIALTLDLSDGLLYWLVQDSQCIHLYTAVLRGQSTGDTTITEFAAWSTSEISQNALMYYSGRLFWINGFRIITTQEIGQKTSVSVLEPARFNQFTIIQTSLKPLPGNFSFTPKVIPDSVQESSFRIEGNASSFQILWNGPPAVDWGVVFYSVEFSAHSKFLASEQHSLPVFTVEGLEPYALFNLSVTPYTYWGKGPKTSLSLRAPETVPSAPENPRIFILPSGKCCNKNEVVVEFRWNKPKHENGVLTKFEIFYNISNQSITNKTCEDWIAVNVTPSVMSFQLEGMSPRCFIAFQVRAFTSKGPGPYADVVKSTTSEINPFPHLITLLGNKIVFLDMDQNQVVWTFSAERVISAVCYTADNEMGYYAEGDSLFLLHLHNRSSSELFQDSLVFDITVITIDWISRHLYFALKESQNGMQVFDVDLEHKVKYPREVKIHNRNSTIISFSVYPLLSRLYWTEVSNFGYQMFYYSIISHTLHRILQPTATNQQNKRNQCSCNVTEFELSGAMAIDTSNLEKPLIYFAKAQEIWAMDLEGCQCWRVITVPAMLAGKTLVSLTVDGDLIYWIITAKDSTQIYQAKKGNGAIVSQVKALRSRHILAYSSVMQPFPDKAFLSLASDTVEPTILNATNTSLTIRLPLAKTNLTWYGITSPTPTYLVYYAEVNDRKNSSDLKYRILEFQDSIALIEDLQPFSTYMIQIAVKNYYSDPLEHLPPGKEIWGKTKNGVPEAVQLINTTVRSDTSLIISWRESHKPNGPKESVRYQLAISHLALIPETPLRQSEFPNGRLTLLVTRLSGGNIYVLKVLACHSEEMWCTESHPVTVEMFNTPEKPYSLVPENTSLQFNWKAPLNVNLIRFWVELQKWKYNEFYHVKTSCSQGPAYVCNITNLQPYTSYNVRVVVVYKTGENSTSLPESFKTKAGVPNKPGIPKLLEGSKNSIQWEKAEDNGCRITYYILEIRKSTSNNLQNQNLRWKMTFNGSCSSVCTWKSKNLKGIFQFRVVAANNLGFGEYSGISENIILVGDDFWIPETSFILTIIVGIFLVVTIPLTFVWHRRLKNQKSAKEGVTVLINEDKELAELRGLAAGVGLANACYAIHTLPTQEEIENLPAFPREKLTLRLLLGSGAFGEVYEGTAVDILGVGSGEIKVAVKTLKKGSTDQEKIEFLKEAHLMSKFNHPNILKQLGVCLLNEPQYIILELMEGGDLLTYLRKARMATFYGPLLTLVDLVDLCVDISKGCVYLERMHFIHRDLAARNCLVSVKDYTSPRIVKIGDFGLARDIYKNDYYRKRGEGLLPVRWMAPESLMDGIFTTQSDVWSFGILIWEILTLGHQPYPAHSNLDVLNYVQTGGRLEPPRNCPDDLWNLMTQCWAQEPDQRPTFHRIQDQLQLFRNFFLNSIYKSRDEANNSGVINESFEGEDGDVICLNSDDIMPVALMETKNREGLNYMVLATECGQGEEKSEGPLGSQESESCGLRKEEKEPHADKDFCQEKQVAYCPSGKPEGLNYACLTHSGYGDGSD

PhKγ2 = biological target: T1, PhKγ2 (Homo sapiens, UniProt P15735); conditions: read-out: PhKγ2, % of Control
T1 sequence (P15735 1-406): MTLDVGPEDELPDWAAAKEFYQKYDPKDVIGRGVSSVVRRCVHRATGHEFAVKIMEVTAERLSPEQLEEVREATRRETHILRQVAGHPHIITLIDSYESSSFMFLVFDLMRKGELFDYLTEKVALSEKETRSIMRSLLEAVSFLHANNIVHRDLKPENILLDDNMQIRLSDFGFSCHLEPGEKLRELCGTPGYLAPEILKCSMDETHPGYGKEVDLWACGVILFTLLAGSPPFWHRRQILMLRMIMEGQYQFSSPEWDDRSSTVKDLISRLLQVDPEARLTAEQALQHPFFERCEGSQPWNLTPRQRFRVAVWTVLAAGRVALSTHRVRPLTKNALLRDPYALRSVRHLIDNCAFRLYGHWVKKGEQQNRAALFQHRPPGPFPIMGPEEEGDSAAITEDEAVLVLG

BTK, sequence (Q06187 whole entry): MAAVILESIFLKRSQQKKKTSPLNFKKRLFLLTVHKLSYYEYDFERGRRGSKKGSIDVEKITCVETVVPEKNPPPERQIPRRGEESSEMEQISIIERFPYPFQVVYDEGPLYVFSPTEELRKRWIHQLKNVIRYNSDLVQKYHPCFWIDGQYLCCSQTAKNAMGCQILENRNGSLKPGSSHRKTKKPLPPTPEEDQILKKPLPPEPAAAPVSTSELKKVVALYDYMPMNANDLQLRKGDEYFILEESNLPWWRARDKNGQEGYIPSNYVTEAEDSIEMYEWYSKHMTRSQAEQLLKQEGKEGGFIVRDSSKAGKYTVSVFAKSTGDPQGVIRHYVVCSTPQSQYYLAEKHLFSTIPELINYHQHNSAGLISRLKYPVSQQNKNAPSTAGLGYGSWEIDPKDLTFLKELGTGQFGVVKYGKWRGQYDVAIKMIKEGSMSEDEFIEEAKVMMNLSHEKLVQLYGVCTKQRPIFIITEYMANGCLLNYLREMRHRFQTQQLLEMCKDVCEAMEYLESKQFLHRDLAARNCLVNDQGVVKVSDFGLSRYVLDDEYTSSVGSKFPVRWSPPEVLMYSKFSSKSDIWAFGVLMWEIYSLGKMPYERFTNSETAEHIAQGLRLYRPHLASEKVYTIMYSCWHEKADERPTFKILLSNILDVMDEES
CDK1/cyclinB, sequence (P06493 whole entry): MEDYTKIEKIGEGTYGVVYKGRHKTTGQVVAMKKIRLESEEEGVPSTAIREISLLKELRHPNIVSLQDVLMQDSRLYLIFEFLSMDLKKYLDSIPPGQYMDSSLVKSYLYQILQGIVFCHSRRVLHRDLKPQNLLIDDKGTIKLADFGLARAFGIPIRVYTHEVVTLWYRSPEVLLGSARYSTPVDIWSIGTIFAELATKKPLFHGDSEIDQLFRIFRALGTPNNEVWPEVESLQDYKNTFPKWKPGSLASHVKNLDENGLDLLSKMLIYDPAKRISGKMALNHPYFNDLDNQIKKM
CDK1/cyclinB, sequence (P14635 whole entry partner): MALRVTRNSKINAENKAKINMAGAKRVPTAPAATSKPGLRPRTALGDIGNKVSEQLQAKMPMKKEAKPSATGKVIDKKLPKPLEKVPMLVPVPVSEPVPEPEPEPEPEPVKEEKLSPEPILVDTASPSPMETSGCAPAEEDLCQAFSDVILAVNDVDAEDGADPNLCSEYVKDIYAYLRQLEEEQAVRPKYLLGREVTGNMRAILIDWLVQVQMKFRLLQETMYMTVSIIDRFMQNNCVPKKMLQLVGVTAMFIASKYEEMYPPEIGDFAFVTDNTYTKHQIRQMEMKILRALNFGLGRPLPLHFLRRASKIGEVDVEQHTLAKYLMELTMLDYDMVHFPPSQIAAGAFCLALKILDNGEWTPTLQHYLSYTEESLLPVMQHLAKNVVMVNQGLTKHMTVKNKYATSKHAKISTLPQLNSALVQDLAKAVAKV

- remaining activity at 1 µg/mL (BTK; 1 ug/ml): 109%
- remaining activity at 5 µg/mL (BTK; 5 ug/ml): 57%
- remaining activity at 50 µg/mL (BTK; 50 ug/ml): 20%
- remaining activity at 1 µg/mL (CDK1/cyclinB; 1 ug/ml): 118%
- remaining activity at 5 µg/mL (CDK1/cyclinB; 5 ug/ml): 103%
- remaining activity at 25 µg/mL (CDK1/cyclinB; 25 ug/ml): 46%
- remaining activity at 50 µg/mL (CDK1/cyclinB; 50 ug/ml): 18%
- remaining activity at 5 µg/mL (CK1δ; 5 ug/ml): 32%
- remaining activity at 25 µg/mL (CK1δ; 25 ug/ml): 16%
- remaining activity at 50 µg/mL (CK1δ; 50 ug/ml): 12%
- remaining activity at 1 µg/mL (EphA2; 1 ug/ml): 124%
- remaining activity at 50 µg/mL (EphA2; 50 ug/ml): 52%
- remaining activity at 1 µg/mL (Flt4; 1 ug/ml): 74%
- remaining activity at 5 µg/mL (Flt4; 5 ug/ml): 10%
- remaining activity at 25 µg/mL (Flt4; 25 ug/ml): 11%
- remaining activity at 1 µg/mL (Fyn; 1 ug/ml): 104%
- remaining activity at 5 µg/mL (Fyn; 5 ug/ml): 66%
- remaining activity at 25 µg/mL (Fyn; 25 ug/ml): 42%
- remaining activity at 50 µg/mL (Fyn; 50 ug/ml): 18%
- remaining activity at 1 µg/mL (GSK3β; 1 ug/ml): 120%
- remaining activity at 5 µg/mL (GSK3β; 5 ug/ml): 99%
- remaining activity at 25 µg/mL (GSK3β; 25 ug/ml): 25%
- remaining activity at 50 µg/mL (GSK3β; 50 ug/ml): 3%
- remaining activity at 1 µg/mL (GSK3α; 1 ug/ml): 102%
- remaining activity at 25 µg/mL (GSK3α; 25 ug/ml): 11%
- remaining activity at 50 µg/mL (GSK3α; 50 ug/ml): -4%
- remaining activity at 1 µg/mL (HIPK3; 1 ug/ml): 106%
- remaining activity at 5 µg/mL (HIPK3; 5 ug/ml): 102%
- remaining activity at 50 µg/mL (HIPK3; 50 ug/ml): 59%
- remaining activity at 1 µg/mL (PAK3; 1 ug/ml): 21%
- remaining activity at 5 µg/mL (PAK3; 5 ug/ml): 18%
- remaining activity at 25 µg/mL (PAK3; 25 ug/ml): 8%
- remaining activity at 1 µg/mL (PAK6; 1 ug/ml): 105%
- remaining activity at 5 µg/mL (PAK6; 5 ug/ml): 94%
- remaining activity at 25 µg/mL (PAK6; 25 ug/ml): 14%
- remaining activity at 1 µg/mL (Pim-1; 1 ug/ml): 88%
- remaining activity at 5 µg/mL (Pim-1; 5 ug/ml): 35%
- remaining activity at 50 µg/mL (Pim-1; 50 ug/ml): 3%
- remaining activity at 1 µg/mL (Pim-2; 1 ug/ml): 104%
- remaining activity at 5 µg/mL (Pim-2; 5 ug/ml): 48%
- remaining activity at 25 µg/mL (Pim-2; 25 ug/ml): 14%
- remaining activity at 50 µg/mL (Pim-2; 50 ug/ml): 6%
- remaining activity at 1 µg/mL (PKBα; 1 ug/ml): 102%
- remaining activity at 25 µg/mL (PKBα; 25 ug/ml): 18%
- remaining activity at 50 µg/mL (PKBα; 50 ug/ml): 5%
- remaining activity at 1 µg/mL (PKCβII; 1 ug/ml): 108%
- remaining activity at 5 µg/mL (PKCβII; 5 ug/ml): 108%
- remaining activity at 25 µg/mL (PKCβII; 25 ug/ml): 71%
- remaining activity at 50 µg/mL (PKCβII; 50 ug/ml): 79%
- remaining activity at 1 µg/mL (Ros; 1 ug/ml): 101%
- remaining activity at 5 µg/mL (Ros; 5 ug/ml): 99%
- remaining activity at 25 µg/mL (Ros; 25 ug/ml): 85%
- remaining activity at 50 µg/mL (Ros; 50 ug/ml): 94%
- remaining activity at 1 µg/mL (PhKγ2; 1 ug/ml): 106%
- remaining activity at 5 µg/mL (PhKγ2; 5 ug/ml): 60%
- remaining activity at 25 µg/mL (PhKγ2; 25 ug/ml): 11%
- remaining activity at 50 µg/mL (PhKγ2; 50 ug/ml): 5%
Compound: COc1cc(O)c(CC=C(C)C)c(O)c1C(=O)/C=C/c1ccc(O)cc1 [Xanthohumol, xanthohumol]
- inhibition of PI3K-γ activity (PI3K gamma): more inhibitory to PI3K-γ than to PI3K-β or PI3K-δ
